According to US20210386787A1, “Hematopoietic Stem and Progenitor Cell Expansion System” (LIFE TECHNOLOGIES CORPORATION, priority 2018, published 2021):

Test system: CD34^+ mPB cells
Experiment: Effect of garcinol and VPA on medium performance: 7-day expansion of CD34+ mPB cells in medium ± VPA or garcinol
Assay type: cell-based
Parameters: key to % CD34^+CD90^+ / Fold TNC / % CD34^+ / Fold CD34^+: (+) is baseline; (++) or greater improvement; (*) denotes no data (the cells died when garcinol was added to ACF)
Details: for % CD34^+CD90^+ / Fold TNC / % CD34^+ / Fold CD34^+: day 7, three donors
Protocol: In vitro expansion. Enriched CD34^+ cells from three donors of human mobilized peripheral blood (mPB, AllCells) were cultured in the following serum free media: HSC Medium (as provided herein), and the commercially available Stem Cell Growth Medium (SCGM, CellGenix GmbH), STEMSPAN™ Animal Component Free (ACF, STEMCELL Technologies), and STEMPRO™ 34 (Thermo Fisher Scientific). All media were supplemented with 100 ng/mL SCF, 100 ng/mL FLT-3L, 100 ng/mL TPO, 50 ng/mL IL-3, and 20 ng/mL IL-6 (all provided by Thermo Fisher Scientific). HSC expansion was initiated by culturing 5×10^3 CD34^+ cells/mL in a 48 well plate for 7 days in a humidified 37° C., 5% CO2 incubator. At day 7, total nucleated cell (TNC) number and % viability were assessed using a Countess II cell counter (Thermo Fisher Scientific), and cell phenotype was performed by flow cytometry.
Flow cytometry analysis. TNC were washed in phosphate-buffered saline (PBS) and incubated for 20 minutes at room temperature with LIVE/DEAD® Fixable Yellow stain in PBS. Cells were washed in flow cytometry staining buffer, and incubated with a cocktail of monoclonal antibodies against human cell surface antigens: CD34 PE-Cy7, CD90 APC, CD45RA Pacific Blue, for 30 minutes at 4° C. Cells were analyzed on a Attune NxT flow cytometer (Thermo Fisher Scientific), and FLOWJO® Software (version 7.6.5 Becton Dickinson).
Effect of small molecules to medium performance. To assess the contribution of valproic acid (VPA) and garcinol to competitor media, the small molecules were added to SCGM and STEMSPAN™ ACF either in combination or individually at the final concentration present in HSC Medium. To address whether there is a reduction in performance of HSC Medium when the small molecules were excluded from the formulation, either VPA or garcinol were removed during manufacture. CD34^+ mPB cells from three donors were cultured as described above (Example 1) in medium±VPA or garcinol, and compared with HSC medium, STEMSPAN™ ACF, SCGM or STEMSPAN™ ACF with STEMSPAN™ CD34^+ Expansion Supplement (10×). At day 7, cells were assessed for TNC, % viability, CD34^+, CD34^+CD90^+CD45RA^− cells as described above. To pool data points (CD34^+ expansion, TNC expansion) from the three donors, all conditions were normalized to SCGM media the standard error calculated. For pooling of % CD34^+ and % CD34^+CD90^+CD45RA^− data points in the three donors, the values were averaged and standard error calculated.

[1] = in HSC Medium made with the named small molecule(s) only
[2] = small molecule(s) added to SCGM
[3] = small molecule(s) added to ACF (STEMSPAN ACF)

Structure (SMILES)	% CD34^+CD90^+ [1]	Fold TNC [1]	% CD34^+ [2]	% CD34^+CD90^+ [2]	Fold CD34^+ [2]	Fold TNC [2]	performance (HSC expansion) (added to ACF)	% CD34^+CD90^+CD45RA^− (added to competitor media)	expansion of HSC / performance (added to competitor media (SCGM, STEMSPAN ACF))	% CD34^+ [1]	Fold CD34^+ [1]	% CD34^+ [3]	% CD34^+CD90^+ [3]
C=C(C)[C@@H](CC=C(C)C)C[C@@]12C[C@@H](CC=C(C)C)C(C)(C)[C@@](CC=C(C)C)(C(=O)C(C(=O)c3ccc(O)c(O)c3)=C1O)C2=O [Garcinol, garcinol]	+	+	+	+	+	+							
CCCC(CCC)C(=O)O [VPA, valproic acid]		+	++	++	++	++	boosted performance to HSC Medium (with garcinol and VPA) levels	improved	improved expansion of HSC	++	+	++	++
